Data set [1] addresses Protein cereblon/Tyrosine-protein kinase ABL1/Breakpoint cluster region protein (Homo sapiens, UniProt P00519+P11274+Q96SW2, T315I). In kind it is cell-based, BaF3.
For the next data set, the system named is H9c2. Put plainly: Antiproliferative activity against rat H9C2 cells incubated for 3 days by CCK8 assay. Format: cell-based. Particulars: H9c2, 72 h. In general terms: Tetrazolium assays rely on reduction of a dye to a coloured formazan, in cell work by metabolically active cells.
Data set [2] has as its system HUVEC. Briefly: Antiproliferative activity against human HUVEC incubated for 3 days by CCK8 assay. In kind it is cell-based. Particulars: 72 h.
The subject of another data set is BaF3. Put plainly: Antiproliferative activity against wild type mouse BA/F3 cells incubated for 3 days by CCK8 assay. In kind it is cell-based. As to conditions: BaF3, 72 h.
In data set [3] the test system is HUVEC. Briefly: Toxicity in HUVEC assessed as inhibition of tube formation at 200 nM incubated for 20 hrs by optical microscopy based matrigel-based assay. In kind it is cell-based. Particulars: human, 0.2 µM.
The test system of the next data set is K562. Briefly: Antiproliferative activity against human K562 cells incubated for 3 days by CCK8 assay. In kind it is functional, cell-based. Particulars: K562, 72 h.
The target in data set [4] is Protein cereblon/Tyrosine-protein kinase ABL1/Breakpoint cluster region protein (Homo sapiens, UniProt P00519+P11274+Q96SW2). Put plainly: Protac activity at Cereblon/BCR/ABL in human K562 cells assessed as induction of BCR-ABL degradation incubated for 32 to 48 hrs by Western blot analysis. Format: cell-based. On the technique in general: A western blot detects proteins with antibodies after separation by electrophoresis.

The test system of data set [5] is Protein cereblon/Tyrosine-protein kinase ABL1/Breakpoint cluster region protein (Homo sapiens), P00519+P11274+Q96SW2 [T315I]. Briefly: Protac activity at Cereblon/BCR/ABL T315I mutant (unknown origin) expressed in mouse BaF3 cells assessed as reduction in BCR-ABL T315I mutant protein levels at 3 to 30000 nM incubated for 48 hrs by Western blot analysis. Format: cell-based.

Data set [6] has the same test system. Put plainly: Protac activity at Cereblon/BCR/ABL T315I mutant (unknown origin) expressed in mouse BaF3 cells assessed as reduction in BCR-ABL T315I mutant protein levels at 1 uM incubated for 48 hrs by Western blot analysis. Format: cell-based.
Data set [7] has the same test system. Put plainly: Protac activity at Cereblon/BCR/ABL T315I mutant (unknown origin) expressed in mouse BaF3 cells assessed as reduction in BCR-ABL T315I mutant protein levels at 3 to 30000 nM incubated for 32 hrs by Western blot analysis. In kind it is cell-based.

The structures appear in SMILES notation. Active and inactive are the calls of the source. The calls are words filed in the database; no cut-off is given here.

In general, EC50 refers to the concentration that produces a half-maximal response. Low values mean a more potent agent, high ones a less potent agent. On to `C#CCCCC(=O)N1CCN(c2cc(Nc3ncc(/C=C/c4cccc(C)c4)s3)nc(C)n2)CC1`, for which the EC50 in [1] amounted to 450 nM.

As a reminder, the IC50 is the concentration needed to halve the response being measured. As to `Cc1ccc(C(=O)Nc2ccc(CN3CCN(C)CC3)c(C(F)(F)F)c2)cc1C#Cc1cnc2cccnn12` [PONATINIB], the values for the EC50 in the data set with H9c2, in the data set with HUVEC [2] and with BaF3 were 379 nM, 515 nM and 438 nM, respectively. Besides, the Activity entry with HUVEC [3] is on record as “Toxic”. This compound also returned an IC50 with K562 of 0.3 nM. One may read the DC50 as the concentration giving 50% degradation. Turning to `O=C1CCC(N2C(=O)c3cccc(NCCOCCOCCn4cc(CCCC(=O)N[C@@H]5CCN(c6ncc(C(=O)Nc7ccc(OC(F)(F)Cl)cc7)cc6-c6cc[nH]n6)C5)nn4)c3C2=O)C(=O)N1` (stereo not given in full), the half-maximal degradation concentration (DC50) in [4] is 300 nM. Turning to `Cc1nc(Nc2ncc(C(=O)Nc3c(C)cccc3Cl)s2)cc(N2CCN(CCCCCCOCCOCCOCCCCCC(=O)Nc3cccc4c3C(=O)N(C3CCC(=O)NC3=O)C4=O)CC2)n1` (stereo not given), the result in data set [5] was inactive. In addition, in the data set with BaF3, the half-maximal effective concentration (EC50) is above 10000 nM. The IC50 in the data set with K562 was 8 nM. For the compound `Cc1ccc(NC(=O)c2ccc(CN3CCN(C(=O)CCCc4cn(CCOCCNc5cccc6c5C(=O)N(C5CCC(=O)NC5=O)C6=O)nn4)CC3)cc2)cc1Nc1nccc(-c2cccnc2)n1` (stereo not given), in [4], the DC50 is above 10000 nM.

For `C#CCCCC(=O)N1CCN(c2cc(Nc3ncc(/C=C/c4ccc(F)cc4)s3)nc(C)n2)CC1`, in [1], the response was half-maximal at 3200 nM (EC50). Turning to `Cc1ccc(C(=O)Nc2ccc(CN3CCN(C(=O)CCCc4cn(CCNc5cccc6c5C(=O)N(C5CCC(=O)NC5=O)C6=O)nn4)CC3)c(C(F)(F)F)c2)cc1C#Cc1cnc2cccnn12` (stereo not given), the DC50 in data set [4] was 625 nM. Turning to `C#CCCCC(=O)N1CCN(c2cc(Nc3ncc(/C=C/c4ccc(F)c(F)c4)s3)nc(C)n2)CC1`, the EC50 in [1] was found to be 570 nM. Regarding `Cc1ccc(C(=O)Nc2ccc(CN3CCN(C(=O)CCCc4cn(CCOCCNc5cccc6c5C(=O)N(C5CCC(=O)NC5=O)C6=O)nn4)CC3)c(C(F)(F)F)c2)cc1C#Cc1cnc2cccnn12` (stereo not given), the DC50 in [4] is 70 nM.

Take `O=C1CCC(N2C(=O)c3cccc(NCCOCCOCCOCCOCCn4cc(CCCC(=O)N[C@@H]5CCN(c6ncc(C(=O)Nc7ccc(OC(F)(F)Cl)cc7)cc6-c6cc[nH]n6)C5)nn4)c3C2=O)C(=O)N1` (stereo not given in full): in [4], the DC50 was found to be 500 nM.

In the case of `Cc1cccc(/C=C/c2cnc(Nc3cc(N4CCN(C(=O)CCCc5cn(CCOCCOCCOCCOCCNc6cccc7c6C(=O)N(C6CCC(=O)NC6=O)C7=O)nn5)CC4)nc(C)n3)s2)c1` (stereo not given), the result in [6] and in data set [5] was Active. The figures for the EC50 (in the data set with BaF3; in data set [1]) were above 10000 nM and 6100 nM, respectively. Consider `Cc1ccc(NC(=O)c2ccc(CN3CCN(C)CC3)cc2)cc1Nc1nccc(-c2cccnc2)n1` [IMATINIB], for which the IC50 in the data set on K562 stood at 76.2 nM. For `O=C1CCC(N2C(=O)c3cccc(NCCOCCn4cc(CCCC(=O)N[C@@H]5CCN(c6ncc(C(=O)Nc7ccc(OC(F)(F)Cl)cc7)cc6-c6cc[nH]n6)C5)nn4)c3C2=O)C(=O)N1` (stereo not given in full), the DC50 in [4] came to 400 nM. On the same count and under the same terms, in the case of `O=C1CCC(N2C(=O)c3cccc(NCCn4cc(CCCC(=O)N[C@@H]5CCN(c6ncc(C(=O)Nc7ccc(OC(F)(F)Cl)cc7)cc6-c6cc[nH]n6)C5)nn4)c3C2=O)C(=O)N1` (stereo not given in full) it was above 625 nM. Regarding `O=C1CCC(N2C(=O)c3cccc(NCCOCCOCCOCCn4cc(CCCC(=O)N[C@@H]5CCN(c6ncc(C(=O)Nc7ccc(OC(F)(F)Cl)cc7)cc6-c6cc[nH]n6)C5)nn4)c3C2=O)C(=O)N1` (stereo not given in full), the EC50 was above 10000 nM in the data set on BaF3 and 1020 nM in [1]. In the data set on K562, the IC50 is 121 nM. For the same compound, the DC50 in [4] was 200 nM. For the same compound, the outcome in data set [7] was Active. Take `Cc1ccc(C(=O)Nc2ccc(CN3CCN(C(=O)CCCc4cn(CCOCCOCCOCCOCCNc5cccc6c5C(=O)N(C5CCC(=O)NC5=O)C6=O)nn4)CC3)c(C(F)(F)F)c2)cc1C#Cc1cnc2cccnn12` (stereo not given): the DC50 in [4] came to 70 nM. Take `C#CCCCC(=O)N1CCN(c2cc(Nc3ncc(/C=C/c4cccc(O)c4)s3)nc(C)n2)CC1`: a half-maximal effect in data set [1] (EC50) was put at 1300 nM. As for `Cc1nc(Nc2ncc(C(=O)Nc3c(C)cccc3Cl)s2)cc(N2CCN(C(=O)CCCc3cn(CCOCCNc4cccc5c4C(=O)N(C4CCC(=O)NC4=O)C5=O)nn3)CC2)n1` (stereo not given), the DC50 in data set [4] is 56 nM.

`C#CCCCC(=O)N1CCN(c2cc(Nc3ncc(C)s3)nc(C)n2)CC1`: the EC50 in [1] was above 10000 nM. The same measure, in the same setting: the value for `C#CCCCC(=O)N1CCN(c2cc(Nc3ncc(/C=C/c4cc(F)cc(F)c4)s3)nc(C)n2)CC1` was 1500 nM. In the case of `Cc1nc(Nc2ncc(C(=O)Nc3c(C)cccc3Cl)s2)cc(N2CCN(CCO)CC2)n1` [DASATINIB], the EC50 in the data set with BaF3 was above 10000 nM. In the data set on K562, this compound registered a 50% inhibitory concentration (IC50) of 0.19 nM.

Turning to `Cc1ccc(NC(=O)c2ccc(CN3CCN(C(=O)CCCc4cn(CCOCCOCCNc5cccc6c5C(=O)N(C5CCC(=O)NC5=O)C6=O)nn4)CC3)cc2)cc1Nc1nccc(-c2cccnc2)n1` (stereo not given), in data set [4], the DC50 is above 10000 nM. On to `Cc1nc(Nc2ncc(C(=O)Nc3c(C)cccc3Cl)s2)cc(N2CCN(C(=O)CCCc3cn(CCOCCOCCNc4cccc5c4C(=O)N(C4CCC(=O)NC4=O)C5=O)nn3)CC2)n1` (stereo not given), for which the DC50 in data set [4] is 20 nM. As to `Cc1ccc(NC(=O)c2ccc(CN3CCN(C(=O)CCCc4cn(CCOCCOCCOCCNc5cccc6c5C(=O)N(C5CCC(=O)NC5=O)C6=O)nn4)CC3)cc2)cc1Nc1nccc(-c2cccnc2)n1` (stereo not given), the DC50 in data set [4] was above 10000 nM.

With `Cc1nc(Nc2ncc(C(=O)Nc3c(C)cccc3Cl)s2)cc(N2CCN(C(=O)CCCc3cn(CCNc4cccc5c4C(=O)N(C4CCC(=O)NC4=O)C5=O)nn3)CC2)n1` (stereo not given), the DC50 in [4] came to 56 nM. Take `Cc1nc(Nc2ncc(C(=O)Nc3c(C)cccc3Cl)s2)cc(N2CCN(C(=O)CCCc3cn(CCOCCOCCOCCOCCNc4cccc5c4C(=O)N(C4CCC(=O)NC4=O)C5=O)nn3)CC2)n1` (stereo not given): the outcome in [5] was inactive. Further, the EC50 (in the data set with BaF3; in [1]) was above 10000 nM throughout. The compound also gave an IC50 in the data set with K562 of 9.2 nM. In [4], the DC50 worked out at 10 nM. Take `Cc1ccc(NC(=O)c2ccc(CN3CCN(C(=O)CCCc4cn(CCNc5cccc6c5C(=O)N(C5CCC(=O)NC5=O)C6=O)nn4)CC3)cc2)cc1Nc1nccc(-c2cccnc2)n1` (stereo not given): the DC50 in data set [4] is above 10000 nM. Take `C#CCCCC(=O)N1CCN(c2cc(Nc3ncc(/C=C/c4cccc(F)c4)s3)nc(C)n2)CC1`: the EC50 in data set [1] came out at 770 nM. `Cc1nc(Nc2ncc(C(=O)Nc3c(C)cccc3Cl)s2)cc(N2CCN(C(=O)CCCc3cn(CCOCCOCCOCCNc4cccc5c4C(=O)N(C4CCC(=O)NC4=O)C5=O)nn3)CC2)n1` (stereo not given): the DC50 in data set [4] was 56 nM.

In the case of `Cc1ccc(NC(=O)c2ccc(CN3CCN(C(=O)CCCc4cn(CCOCCOCCOCCOCCNc5cccc6c5C(=O)N(C5CCC(=O)NC5=O)C6=O)nn4)CC3)cc2)cc1Nc1nccc(-c2cccnc2)n1` (stereo not given), the DC50 in data set [4] is above 10000 nM. As for `C#CCCCC(=O)N1CCN(c2cc(Nc3ncc(/C=C/c4cccc(OC)c4)s3)nc(C)n2)CC1`, the EC50 in data set [1] was above 10000 nM. Take `Cc1ccc(C(=O)Nc2ccc(CN3CCN(C(=O)CCCc4cn(CCOCCOCCNc5cccc6c5C(=O)N(C5CCC(=O)NC5=O)C6=O)nn4)CC3)c(C(F)(F)F)c2)cc1C#Cc1cnc2cccnn12` (stereo not given): in [4], the DC50 worked out at 70 nM.

The values are drawn from ChEMBL document CHEMBL4616725, “Global PROTAC Toolbox for Degrading BCR-ABL Overcomes Drug-Resistant Mutants and Adverse Effects” (J Med Chem, 2020).
